Reference: publication PMC6096703, “Pharmacokinetic drug interaction and safety after coadministration of clarithromycin, amoxicillin, and ilaprazole: a randomised, open-label, one-way crossover, two parallel sequences study” (European Journal of Clinical Pharmacology, 2018)
One block for each compound: values may come before it.

How the values were obtained:
[1] = Pharmacokinetic assessment of plasma concentrations (LC-MS/MS, non-compartmental analysis) after mono/dual and triple therapy; conditions: for AUC(0-inf) / AUC(0-t) / Cmax / Vd/F / half-life / Tmax: male, human, plasma; for AUC(0-inf) / AUC(0-t) / Cmax / Vd/F / half-life: oral; for Tmax: po, median (min–max)
Description: (§1) This was a randomised, open-label, one-way crossover, two parallel sequences study. A total of 32 subjects were randomised and assigned to one of the two parts. Subjects assigned to part 1 received a single dose of ilaprazole (Noltec Tab., IL-YANG Pharmaceutical Co.) 10 mg in the first period. Then, after a washout period of 10 days, clarithromycin (Klaricid Film Coated Tab., Abbott Korea) 500 mg and amoxicillin (Amoxicillin Cap. 500 mg Chongkundang, Chong Kun Dang Pharmaceutical Co., Korea) 1000 mg were administered twice daily for 6 days in the second period. Ilaprazole 10 mg was coadministered with clarithromycin and amoxicillin on the day 5 of the second period.
(§2) Subjects assigned to part 2 received single doses of both clarithromycin 500 mg and amoxicillin 1000 mg in the first period; after a washout period of 10 days, ilaprazole 10 mg was administered twice daily for 6 days in the second period. Clarithromycin 500 mg and amoxicillin 1000 mg were coadministered with ilaprazole on the day 5 of the second period (Fig. 1).
(§3) Serial blood samples were collected in anti-coagulated EDTA-K2 tubes at 0 (pre-dose), 1, 2, 2.5, 3, 3.5, 4, 4.5, 5, 6, 8, 12, 24, and 48 h after dosing of ilaprazole in part 1. The PK sampling points in part 2 were 0 (pre-dose), 0.5, 0.75, 1, 1.5, 2, 2.5, 3, 4, 6, 8, 12, 24, and 48 h after dosing of clarithromycin and amoxicillin. Blood sampling points were determined considering the time to reach peak concentration (Tmax) and elimination half-life (t1/2) of ilaprazole, clarithromycin, and amoxicillin [9, 10, 20]. Plasma concentrations of ilaprazole, clarithromycin, and amoxicillin were analysed using liquid chromatography-tandem mass spectrometry (LC-MS/MS). Samples were centrifuged for 10 min under 4 °C at 2000×g and stored below − 70 °C until analysis.
(§4) For the analysis of ilaprazole, 100 μL of plasma was added to polypropylene tubes and mixed with 10 μL of the internal standard (omeprazole) solution and 1 mL of acetonitrile. The mixture was vortexed for 1 min and centrifuged for 5 min at 11,337×g. The supernatant (100 μL) was collected and reconstituted with 600 μL of mobile phase. The supernatant (2 μL) was then injected into an LC-MS/MS system. An LC system (Shiseido Nanospace SI-2, Shiseido, Tokyo, Japan) was used with a mobile phase (10 mM ammonium formate/acetonitrile = 50/50 [v/v]) at 40 °C. Chromatographic separation was performed at a flow rate of 0.25 mL/min. The transition of ilaprazole was detected at m/z 367.0 to 184.2 by using an MS/MS system (API4000®, AB SCIEX, Washington DC, USA) in the multiple reaction monitoring (MRM) mode with a positive electrospray ionisation (ESI) source. The calibration curve was linear over the range of 5–1000 ng/mL, and the correlation coefficient (r) was > 0.995.
(§5) For the analysis of clarithromycin, 100 μL of plasma was added to polypropylene tubes and mixed with 10 μL of the internal standard (clarithromycin-N-methyl-^13C, d3) solution and 500 μL of acetonitrile. The mixture was vortexed for 1 min and centrifuged for 5 min at 11,337×g. The supernatant (50 μL) was collected and reconstituted with 1000 μL of 50% acetonitrile. The supernatant (3 μL) was then injected into the LC-MS/MS system. The LC system was used with a mobile phase (10 mM ammonium formate/acetonitrile = 20/80 [v/v]) at 40 °C. Chromatographic separation was performed at a flow rate of 0.2 mL/min. The transition of clarithromycin was detected at m/z 748.4 to 590.4 using an MS/MS system (4000QTRAP, AB SCIEX, Washington DC, USA) in the MRM mode with a positive ESI source. The calibration curve was linear over the range of 10–7000 ng/mL, and the correlation coefficient (r) was > 0.995.
(§6) For the analysis of amoxicillin, 100 μL of plasma was added to polypropylene tubes and mixed with 10 μL of internal standard (amoxicillin-d4) solution and 500 μL of acetonitrile. The mixture was vortexed for 1 min and centrifuged for 5 min at 11,337×g.

[2] = Safety assessment: adverse events and adverse drug reactions; type: in vivo, healthy Korean male volunteers; conditions: Part I
Description: Safety and tolerability were evaluated throughout the study. The assessments included monitoring of all adverse events (AEs) based on physical examinations, vital signs, 12-lead ECG, routine haematology, serum chemistry, and urinalysis. The subjects were instructed to notify the study physicians or nurses of any AEs that occurred during the study. All AEs reported by subjects or detected in the assessments were recorded, and the investigators determined their relationship to the treatment. The severity of the AEs was evaluated based on the Common Terminology Criteria for Adverse Events (CTCAE, version 4.03).

clinical = conditions: male, human, in vivo, t1/2
Description: as §1, §2, §3, §4, §5, §6

[3] = in vivo
Description: as §1, §2, §3, §4, §5, §6

[4] = design: method as in PMID 16231964; conditions: cited from earlier work
[5] = dual therapy, period 1 of part 2, N = 15, arithmetic mean (SD)
[6] = AUCinf, dual therapy, period 1 of part 2, N = 15, arithmetic mean (SD)
[7] = AUCinf, geometric least square mean, dual therapy, period 1 of part 2, N = 15
[8] = AUCinf, geometric least square mean, triple therapy, period 2 of part 2, N = 15
[9] = AUCinf, triple therapy, period 2 of part 2, N = 15, arithmetic mean (SD)
[10] = AUClast, dual therapy, period 1 of part 2, N = 15, arithmetic mean (SD)
[11] = AUClast, geometric least square mean, dual therapy, period 1 of part 2, N = 15
[12] = AUClast, geometric least square mean, triple therapy, period 2 of part 2, N = 15
[13] = AUClast, triple therapy, period 2 of part 2, N = 15, arithmetic mean (SD)
[14] = geometric least square mean, dual therapy, period 1 of part 2, N = 15
[15] = geometric least square mean, triple therapy, period 2 of part 2, N = 15
[16] = triple therapy, period 2 of part 2, N = 15, arithmetic mean (SD)
[17] = clarithromycin 500 mg + amoxicillin 1000 mg oral single dose (dual therapy, period 1 of part 2), N = 15
[18] = clarithromycin 500 mg + amoxicillin 1000 mg oral with ilaprazole 10 mg (triple therapy, day 5 of period 2, part 2), N = 15
[19] = ilaprazole in triple therapy, period 2 of part 1, N = 13, arithmetic mean (SD)
[20] = 10 mg, ilaprazole monotherapy, period 1 of part 1, N = 13, arithmetic mean (SD)

CL/F [1, 5]: 36.6 (12.7) L/h
AUC(0-inf) [1, 6]: 15000 ng·h/mL
AUC(0-inf) [1, 7]: 14400 ng·h/mL
AUC(0-inf) [1, 8]: 15700 ng·h/mL
AUC(0-inf) [1, 9]: 16900 ng·h/mL
AUC(0-t) [1, 10]: 14600 ng·h/mL
AUC(0-t) [1, 11]: 14000 ng·h/mL
AUC(0-t) [1, 12]: 15300 ng·h/mL
AUC(0-t) [1, 13]: 16500 ng·h/mL
Cmax [1, 5]: 1870 ng/mL
Cmax [1, 14]: 1770 ng/mL
Cmax [1, 15]: 1590 ng/mL
Cmax [1, 16]: 1720 ng/mL
Vd/F [1, 5]: 247 L
Vd/F [1, 16]: 230 L
half-life ([1]; t1/2, dual therapy, period 1 of part 2, N = 15, arithmetic mean (SD)): 4.84 h
half-life ([1]; t1/2, triple therapy, period 2 of part 2, N = 15, arithmetic mean (SD)): 4.83 h
Tmax [1, 17]: 2 h
Tmax [1, 18]: 2.5 h
CL/F [1, 16]: 34.4 (15.1) L/h
SMILES: CC[C@H]1OC(=O)[C@H](C)[C@@H](O[C@H]2C[C@@](C)(OC)[C@@H](O)[C@H](C)O2)[C@H](C)[C@@H](O[C@@H]2O[C@H](C)C[C@H](N(C)C)[C@H]2O)[C@](C)(OC)C[C@@H](C)C(=O)[C@H](C)[C@@H](O)[C@]1(C)O [Clarithromycin, clarithromycin]

CL/F [1, 19]: 3.04 (1.11) L/h
CL/F ([1]; ilaprazole monotherapy, period 1 of part 1, N = 13, arithmetic mean (SD)): 3.28 (1.23) L/h
AUC(0-inf) ([1]; 10 mg, AUCinf, geometric least square mean, ilaprazole monotherapy, period 1 of part 1, N = 13): 3220 ng·h/mL
AUC(0-inf) ([1]; 10 mg, AUCinf, ilaprazole monotherapy, period 1 of part 1, N = 13, arithmetic mean (SD)): 3390 ng·h/mL
AUC(0-t) ([1]; 10 mg, AUClast, geometric least square mean, ilaprazole monotherapy, period 1 of part 1, N = 13): 3140 ng·h/mL
AUC(0-t) ([1]; 10 mg, AUClast, ilaprazole monotherapy, period 1 of part 1, N = 13, arithmetic mean (SD)): 3300 ng·h/mL
Cmax ([1]; 10 mg, geometric least square mean, ilaprazole monotherapy, period 1 of part 1, N = 13): 447 ng/mL
Cmax [1, 20]: 479 ng/mL
Vd/F [1, 20]: 19.5 L
AUC(0-inf) ([1]; 10 mg, mean AUCinf, ilaprazole monotherapy): 3390 ng·h/mL
AUC(0-t) ([1]; 10 mg, mean AUClast, ilaprazole monotherapy): 3300 ng·h/mL
half-life ([1]; 10 mg, t1/2, ilaprazole monotherapy, period 1 of part 1, N = 13, arithmetic mean (SD)): 4.16 h
AUC(0-inf) ([1]; AUCinf, geometric least square mean, ilaprazole in triple therapy, period 2 of part 1, N = 13): 3490 ng·h/mL
AUC(0-inf) ([1]; AUCinf, ilaprazole in triple therapy, period 2 of part 1, N = 13, arithmetic mean (SD)): 3680 ng·h/mL
AUC(0-t) ([1]; AUClast, geometric least square mean, ilaprazole in triple therapy, period 2 of part 1, N = 13): 3350 ng·h/mL
AUC(0-t) ([1]; AUClast, ilaprazole in triple therapy, period 2 of part 1, N = 13, arithmetic mean (SD)): 3540 ng·h/mL
Cmax ([1]; geometric least square mean, ilaprazole in triple therapy, period 2 of part 1, N = 13): 414 ng/mL
Cmax [1, 19]: 446 ng/mL
Vd/F [1, 19]: 20.4 L
AUC(0-inf) ([1]; mean AUCinf, ilaprazole in triple therapy): 3680 ng·h/mL
AUC(0-t) ([1]; mean AUClast, ilaprazole in triple therapy): 3540 ng·h/mL
half-life ([1]; t1/2, ilaprazole in triple therapy, period 2 of part 1, N = 13, arithmetic mean (SD)): 4.66 h
Tmax ([1]; 10 mg, ilaprazole 10 mg oral single dose alone (monotherapy, period 1 of part 1), N = 13): 3.5 h
Tmax ([1]; ilaprazole 10 mg oral with clarithromycin 500 mg and amoxicillin 1000 mg (triple therapy, day 5 of period 2, part 1), N = 13): 3 h
SMILES: COc1ccnc(C[S+]([O-])c2nc3cc(-n4cccc4)ccc3[nH]2)c1C (centres unmarked) [Ilaprazole, ilaprazole]
Subjects with adverse drug reactions [2]: no drug-related AE
Subjects with any adverse event [2]: 5 (31.3) number (%) of subjects

half-life (clinical): 1.18 h
Plasma amoxicillin concentrations at 48 h after study drug administration [3]: not detected
AUCinf GMR (90% CI), triple therapy/dual therapy ([3]; male, human): 0.99 (0.83–1.17)
AUClast GMR (90% CI), triple therapy/dual therapy ([3]; male, human): 0.98 (0.83–1.16)
t1/2 ([3]; male, human): 1.96 (3.26) h
AUC(0-inf) [1, 6]: 28500 ng·h/mL
AUC(0-inf) [1, 7]: 27200 ng·h/mL
AUC(0-inf) [1, 8]: 26900 ng·h/mL
AUC(0-inf) [1, 9]: 27400 ng·h/mL
AUC(0-t) [1, 10]: 27900 ng·h/mL
AUC(0-t) [1, 11]: 26700 ng·h/mL
AUC(0-t) [1, 12]: 26200 ng·h/mL
AUC(0-t) [1, 13]: 26700 ng·h/mL
Cmax [1, 5]: 9370 ng/mL
Cmax [1, 14]: 9140 ng/mL
Cmax [1, 15]: 7910 ng/mL
Cmax [1, 16]: 8140 ng/mL
Vd/F [1, 5]: 64.7 L
Vd/F [1, 16]: 95.1 L
Tmax [1, 17]: 1.5 h
Tmax [1, 18]: 2 h
SMILES: CC1(C)S[C@@H]2[C@H](NC(=O)[C@H](N)c3ccc(O)cc3)C(=O)N2[C@H]1C(=O)O [Amoxicillin, amoxicillin]
bioavailability [4]: 89–98%
